Experimental data published in patent US20050090471A1, “Inhibitors of cyclin-dependent kinases, compositions and uses related thereto” (GPC Biotech, Inc, priority 2001, published 2005).

Tests used:
IMR90 = assay: Calcein AM viability assay, IMR90; assay type: cell-based; settings: IMR-90, normal human fibroblast, 72-hours incubation
Experimental: (§1) The potency of Cdk inhibitors, as measured by loss of cellular viability, was determined with the Calcein AM assay (Molecular Probes). Calcein AM is a substrate of intracellular esterases, which is cleaved only in viable cells to generate a fluorescent product that can be quantified with a fluorescent plate reader. The fluorescent signal is proportional to the number of viable cells, and thus loss of signal in response to the exposure of cells to Cdk inhibitors correlates with a loss of viability. This assay distinguishes cell cycle arrest from loss of viability and is thus well suited for the evaluation of Cdk inhibitors.
(§2) Cellular IC50's were determined in the human colorectal carcinoma cell line, HCT-116, and the normal human fibroblast, IMR90. Protein adjusted IC50's were also determined in HCT-116. Results are presented in Table 3 below (HCT-116 (viability/protein adjusted) and IMR-90).
(§3) HCT-116 or IMR90 cells were recovered from sub-confluent plates by trypsinization and 1,000 or 4,000 cells, respectively, were plated in 24-well dishes and incubated overnight at 37° C., 5% CO2. HCT-116 cells were cultured in RPMI-1640, 10% FCS, and IMR90 cells were cultured in Minimum Essential Medium-alpha, 10% FCS. After overnight incubation to allow.adlierence, the media was aspirated from each well and replaced with media containing a test compound at a concentration from 0 to 250 nM, spanning a total of 7 doses. The plates were returned to the incubator and cultured for an additional 3 days. […] After 72-hours incubation with the test compound, the cells were washed twice with 1×PBS, talking special care to remove all residual buffer.
(§4) A 5 μM Calcein AM. solution was prepared by dissolving a 50 μg aliquot of Calcein (Molecular Probes catalog # C3100) in 50 μl DMSO. After the Calcein had completely dissolved (10 minutes at room temperature), it was diluted into 10 ml PBS. Calcein/PBS (0.5 ml) was added to each well. The plates were incubated for 75 minutes at 37° C. (protected from light) and the fluorescent signal was read on a fluorescent plate reader (excitation 485/20 and emission 530/25).

arrested IMR90 cells = assay: Arrested cell assay (serum starvation), IMR90; assay type: cell-based, human; design: unit not given here; settings: serum-starved arrested cells; unit not given
Experimental: Cyclin-dependent kinase (Cdk) activity is required to promote the progression of cells through distinct phases of the cell division cycle. The proliferation of normal, non-transformed, cells in culture requires the presence of growth factors, the removal of which, through serum deprivation, leads to a loss of Cdlc activity and consequent exit from the cell cycle as cells enter the quiescent phase, Go.
IMR90 cells were plated in triplicate for each compound concentration to be tested in MEM-α media containing 10% fetal calf serum at a density of either 2,000 or 20,000 cells per well in 24-well dishes and incubated overnight at 37° C., 5% CO2. The media was removed from the 20,000 cell-per-well dish, cells were washed once with serum-free media, and serum-fiee media was placed on cells. The plates containing cells both in the presence and absence of serum were incubated for 3 additional days.
To ensure that the cells had indeed exited the cell cyde upon serum withdrawal, the percentage of BrdU positive cells, indicative of those progressing through S phase, was determined in each experiment. For the purpose of this experiment, cellular viability was evaluated simultaneously with the use of SNARF-1, a fluorescent substrate of intracellular esterases which are only active in viable cells. Together, the evaluation of BrdU incorporation and SNARF-1 cleavage by flow cytometry provided an assessment of the viability of arrested cells on a single cell basis. For this analysis, the cells were stained with SNARF-1 as follows and then prepared for determination of BrdU incorporation as described above.
HCT-116 and IMR90 cells were plated at the density described below in T25 flasks in serum-containing media (RPMI-1640 or MEM-a with 10% FCS, respectively). After 24 hours of growth, the media was removed and, after washing the cells, replaced with serum-free media. • HCT-116+FCS 5,000 cells • HCT-116−FCS 100,000 cells • IMR90+FCS 100,000 cells • IMR90−FCS 200,000 cells
The IMR90 cells were grown for an additional 3 days and the HCT-116 cells were grown for an additional 6 days before pulsing with BrdU. A 50 μg aliquot of SNARF-1 (Molecular Probes catalog #C1272) was dissolved in 50 μl DMSO at room temperature for 10 minutes and then diluted into 10 ml PBS. The SNARF-1 was further diluted 1:64,000 before 200 μl was added to each tube of cells which had been cultured in the presence or absence of serum and pulsed with BrdU for 20 hours. The cells were incubated at 37° C. for 30 minutes and then washed with 3 ml of PBS.
These cells were then fixed and prepared for the measurement of BrdU incorporation as described above. The percentage of viable (FL-2) and BrdU positive (FL-1) cells was determined on a FACScan flow cytometer.

HCT-116 = assay: Calcein AM viability assay, HCT-116; assay type: cell-based, human; settings: 72-hours incubation, plus 1 mg/ml alpha acidic glycoprotein and 45 mg/ml human serum albumin, read-out: HCT-116 IC50 protein adjusted
Experimental: as §1, §2, §3, §4

HCT-116 cells = assay: Clonogenic survival assay with HCT-116 cells; assay type: cell-based; settings: Homo sapiens, 24 h exposure, read-out: HCT-116 IC50 clonogenic 24 h
Experimental: This assay was used to determine the concentration of a compound that results irreversible loss of viability after a specified period of exposure.
Media (RPMI-1640, 10% FCS, pen/strep) was pre-warnied to 37° C. in a water bath. Cells were incubated and grown at 37° C., 5% CO2. Cells were recovered by trypsinization from sub-confluent plates and counted using a hemocytometer. 1×10^4 cells were plated in 25 mls of media in a 15 cm tissue culture dish. 14 plates were set up for each test compound, and were incubated overnight at 37° C. The compound was diluted into media at 7 concentrations and the media on the cells was replaced with that containing the test compound. Two plates were set up for each concentration of the compound to be tested, as well as two control plates without compound. […] Colonies were stained with crystal violet solution (0.4% crystal violet, 20 % ethanol) for 5 minutes, washed twice with distilled water, and counted.

Compound | IC50 (HCT-116) | IC50 (IMR90) | Arrested cell IMR90 (arrested IMR90 cells) | IC50 (HCT-116 cells)
CC(C)c1nn(-c2c(Cl)cccc2Cl)c2nc(Cc3ccc(O)c(CN4CCN(C(C)C)CC4)c3)[nH]c(=O)c12.Cl.Cl [Compound C] |  | < 100 nM | >1.0 | 
Cl.Cl.Cl.O=C(Nc1cccc2c1C(=O)c1c-2n[nH]c1-c1ccc(OCCN2CCCC2)cc1)NN1CCOCC1 [Compound I] | < 1000 nM | < 100 nM | >1.0 | 
CN1CCN(NC(=O)Nc2cccc3c2C(=O)c2c-3n[nH]c2-c2ccc(OCCN3CCCC3)cc2)CC1.Cl.Cl.Cl [F] |  | < 100 nM | >1.0 | 
Cl.Cl.Cl.O=C(Nc1cccc2c1C(=O)c1c-2n[nH]c1-c1ccc(OCCN(CCO)CCO)cc1)NN1CCOCC1 [H] |  | < 100 nM | >1.0 | 

Continued, in another order:

IC50 (HCT-116) | Compound | IC50 (IMR90) | Arrested cell IMR90 (arrested IMR90 cells) | IC50 (HCT-116 cells)
< 1000 nM | CC(C)N1CCN(CCOc2ccc(-c3[nH]nc4c3C(=O)c3c(NC(=O)NN5CCOCC5)cccc3-4)cc2)CC1.Cl.Cl.Cl [E] | < 100 nM | >0.1 | 
< 1000 nM | CCCN(CCOc1ccc(-c2[nH]nc3c2C(=O)c2c(NC(=O)NN4CCOCC4)cccc2-3)cc1)CC1CC1.Cl.Cl.Cl [G] | < 100 nM | >0.1 | 
< 1000 nM | CC(C)N1CCN(Cc2cc(-c3[nH]nc4c3C(=O)c3c(NC(=O)NN5CCOCC5)cccc3-4)ccc2O)CC1.Cl.Cl.Cl.Cl [K] | > 100 nM | >1.0 | < 1000 nM
< 1000 nM | CN1CCN(NC(=O)Nc2cccc3c2C(=O)c2c-3n[nH]c2-c2ccc(OCCN3CCOCC3)cc2)CC1.Cl.Cl [Q] | < 100 nM | >0.1 | 
